From patent US10070889B2, “Inorganic pyrophosphate and uses thereof” (The Curators of the University of Missouri, priority 2011, dated 2018)
Like-named read-outs stand apart in the source and are kept apart here. Where a SMILES comes first, the peptide text is derived from it. The star is where a group is joined. Cbz = O=C(OCc1ccccc1)*

Tests used:
[1] = test system: 20S chymotrypsin-like activity sensitive to proteasomal inhibitor MG132; assay: Proteasomal activity of stored spermatozoa, fluorometric substrate Z-LLL-AMC; type: cell-based, boar
Description: Spermatozoa preserved in BTS with and without 10 μM PPi were loaded into a 96-well black plate (final sperm conc. 1×10^6 spermatozoa/ml), and incubated at 37.5° C. with Z-LLE-AMC (a specific substrate for 20S chymotrypsin-like peptidyl-glutamylpeptide hydrolyzing [PGPH] activity not sensitive to MG132; final conc. 100 μM; Enzo Life Sciences, Plymouth, Pa.), Z-LLVY-AMC (a specific substrate for 20S proteasome and other chymotrypsin-like proteases, as well as calpains; final conc. 100 μM; Enzo), Z-LLL-AMC (a specific substrate for 20S chymotrypsin-like activity sensitive to proteasomal inhibitor MG132; final conc. 100 μM; BostonBiochem, Cambridge, Mass.) or ubiquitin-AMC (specific substrate for ubiquitin-C-terminal hydrolase activity; final conc. 1 μM; Enzo) for 1 h. […] In the presence of appropriate 20S core activity, the AMC molecule is cleaved off and becomes fluorescent. This emitted fluorescence was measured every 10 min for a period of 1 h, yielding a curve of relative fluorescence (no units). Fluorescence intensity was measured by Thermo Fluoroskan Ascent (Thermo Scientific), using a 380 nm excitation and 460 nm emission.

[2] = test system: porcine oocytes inseminated with boar spermatozoa; assay: Porcine in vitro fertilization (IVF), total and polyspermic fertilization rates; type: cell-based
Description: Thereafter, 25-30 oocytes were placed into each of four 50 μl drops of the mTBM medium, which had been covered with mineral oil in a 35 mm polystyrene culture dish. The dishes were allowed to equilibrate in the incubator for 30 min until spermatozoa were added for fertilization. […] At the end of the washing procedure, the spermatozoa were resuspended in mTBM medium. After appropriate dilution, 50 μl of this sperm suspension was added to 50 μl of the medium that contained oocytes to give a final sperm concentrations of 1-10×10^5 spermatozoa/ml. Different concentrations of inorganic pyrophosphate (PPi; […], Sigma) were added to fertilization drops (final concentrations; 0-20 μM) at the time of sperm addition. Oocytes were co-incubated with spermatozoa for 6 h at 38.5° C., 5% CO2. At 6 h after IVF, oocytes were transferred into 100 μl NCSU23 containing 0.4% BSA ([…], Sigma) for further culture during 16-20 h.

boar spermatozoa [3] = details: BTS-IMV+10 μM PPi, day 6, vs all other groups
Description: Values are expressed as the mean±SEM. […] Values are expressed as the mean percentages ±SEM. […] (C) Effect of PPi supplementation on the viability of spermatozoa stored in commercial and custom made BTS extenders. Boar spermatozoa were preserved in BTS-IMV (IMV technologies, France) or BTS-HM (homemade) with and without 10 μM PPi for 7 days at room temperature. Sperm motilities were evaluated by observation under light microscopy at 37.5° C. […] Experiments were repeated twice.
Semen was collected from proven fertile adult Duroc boars 15-22 months of age under the guidance of approved Animal Care and Use Committee (ACUC) protocols of the University of Missouri-Columbia (UM-C). The boars were placed on a routine collection schedule of one collection per week. The sperm-rich fraction of ejaculate was collected into an insulated vacuum bottle. Sperm-rich fractions of ejaculates with greater than 85% motile spermatozoa were used. Semen volumes were determined with a graduated cylinder. Sperm concentrations were estimated by a hemocytometer (Fisher Scientific, Houston, Tex.). The percentage of motile spermatozoa was estimated at 38.5° C. by light microscopy at 250× magnification. […]

[4] = test system: boar spermatozoa bound to porcine oocyte zona pellucida
Description: Spermatozoa/oocytes were fixed in 2% formaldehyde for 40 min at room temperature, washed, permeabilized in PBS with 0.1% Triton-X-100 (PBS-TX), and blocked for 25 min in PBS-TX containing 5% normal goat serum. […] In order to count the number of spermatozoa bound to zona pellucida or acrosome reacted spermatozoa, oocyte were fixed and stained with DAPI and acrosome-binding lectin PNA-FITC (Molecular Probes) after IVF 30 min (5×10^5 spermatozoa/ml). Image acquisition was performed on a Nikon Eclipse 800 microscope (Nikon Instruments Inc., Melville, N.Y.) with Cool Snap camera (Roper Scientific, Tucson, Ariz.) and MetaMorph software (Universal Imaging Corp., Downington, Pa.).

[5] = test system: ubiquitin-C-terminal hydrolase activity; details: PPi+BTS (stored with 10 μM PPi), day 10; other treatments 98.4-122.7
Description: (§1) The proteasomal-proteolytic and deubiquitinating activities, which are essential for fertilization, were assayed using specific fluorometric substrates Z-LLL-AMC, Z-LLVY-AMC, Z-LLE-AMC and ubiquitin-AMCs in spermatozoa stored for 3 and 10 days, with or without PPi. Alternatively, 10 μM PPi+BTS was added to semen preserved without PPi at the time of assay (“Add PPi” treatment). As a negative control, 10 μM MG132 (a proteasomal inhibitor) was added to sperm samples before assay.
(§2) Spermatozoa preserved in BTS with and without 10 μM PPi were loaded into a 96-well black plate (final sperm conc. 1×10^6 spermatozoa/ml), and incubated at 37.5° C. with Z-LLE-AMC (a specific substrate for 20S chymotrypsin-like peptidyl-glutamylpeptide hydrolyzing [PGPH] activity not sensitive to MG132; final conc. 100 μM; Enzo Life Sciences, Plymouth, Pa.), Z-LLVY-AMC (a specific substrate for 20S proteasome and other chymotrypsin-like proteases, as well as calpains; final conc. 100 μM; Enzo), Z-LLL-AMC (a specific substrate for 20S chymotrypsin-like activity sensitive to proteasomal inhibitor MG132; final conc. 100 μM; BostonBiochem, Cambridge, Mass.) or ubiquitin-AMC (specific substrate for ubiquitin-C-terminal hydrolase activity; final conc. 1 μM; Enzo) for 1 h. Fluorogenic proteasomal core substrates are composed of a small peptide (LLL/LLE/LLVY) coupled to a fluorescent probe, aminomethylcoumarin (AMC). […] In the presence of appropriate 20S core activity, the AMC molecule is cleaved off and becomes fluorescent. This emitted fluorescence was measured every 10 min for a period of 1 h, yielding a curve of relative fluorescence (no units). Fluorescence intensity was measured by Thermo Fluoroskan Ascent (Thermo Scientific), using a 380 nm excitation and 460 nm emission.

[6] = test system: 20S proteasome and other chymotrypsin-like proteases, as well as calpains; details: PPi+BTS and Add PPi treatments, 10 μM PPi; controls 85.7
Description: as §1, §2

[7] = test system: 20S chymotrypsin-like peptidyl-glutamylpeptide hydrolyzing [PGPH] activity; details: other treatments 363.1-386.1
Description: as §1, §2

boar spermatozoa [8] = details: stored in BTS with 10 μM PPi
Description: Boar spermatozoa were washed twice with PBS-PVA, and sperm concentration was adjusted to 1×10^6 spermatozoa/ml in PBS-PVA. The sperm viability was assessed by LIVE/DEAD® Sperm Viability Kit (L-7011, Molecular Probes) which contains DNA dyes SYBR14 and propidium iodide (PI), following a manufacturer's protocol. Sperm samples (198 μl) were loaded onto a 96-well plate. SYBR14 (1 μl; final conc. 100 nM) and PI (1 μl; final conc. 12 μM) were added to sperm samples and incubated for 10 min at 37.5° C. in darkness. Flow cytometric analysis was performed using a Guava EasyCyte™ Plus flow cytometer (Guava Technologies, IMV Technologies, L'Aigle, France). For each sample, 5,000 events were analyzed by the Guava ExpressPro Assay program, using standard manufacturer settings. For assessment of sperm mitopotential, boar spermatozoa were stained with JC-1 (Cat. No. 4500-0250, MitoPotential Kit, IMV), and measured using manufacturer settings. For negative controls, DMSO or no staining solution was added to sperm samples.
Following an industry practice for boar semen storage, fresh boar semen was diluted in BTS extender and stored at room temperature (15-17° C.) for 10 days. […] As described above, sperm viability was assessed by flow cytometry using a SYBR14/PI viability kit and mitopotential was measured with JC-1 dye.

sperm diluted in BTS = details: added to sperm diluted in BTS, after 6 days of cooling; cited from earlier work

CC(C)C[C@@H](C=O)NC(=O)[C@H](CC(C)C)NC(=O)[C@H](CC(C)C)NC(=O)OCc1ccccc1 [MG132, reference compound] (Cbz-Leu-Leu-Leu-aldehyde)
chymotrypsin-like activity in spermatozoa ([1]; 10 μM MG132 added before assay, day 3): low

O=P(O)(O)OP(=O)(O)O [PPi, inorganic pyrophosphate]
polyspermy ([2]; 10 μM PPi in IVF medium, 1×10^6 spermatozoa/ml): 84.9%
percentage of total and polyspermic fertilization at reduced sperm concentrations ([2]; 10 μM PPi, 1, 2 and 5×10^5 spermatozoa/ml, significant at 5×10^5): augmented
fertilization rates with excess PPi ([2]; 100-500 μM PPi added into IVF medium): decreased fertilization rates in a dose-dependent manner
rates of total and polyspermic fertilization ([2]; increasing concentrations of PPi (up to 10 μM) in IVF medium, 1×10^6 spermatozoa/ml): increased significantly and progressively
combined (mono+polyspermic) fertilization rate, spermatozoa preserved with PPi ([2]; preserved with 10 μM PPi in BTS 3-4 days, IVF with or without PPi (FIG. 7D third, fourth column)): highest
fertilization ([2]; spermatozoa stored in BTS-IMV with 10 μM PPi for 3 days, below 70% without PPi): ~100%
fertilization rates, spermatozoa stored without PPi, PPi added during IVF ([2]; stored 3-4 days in BTS without PPi, IVF with 10 μM PPi (FIG. 7D second column)): higher
sperm motility (boar spermatozoa [3]): Higher
percentage of acrosome-reacted spermatozoa ([4]; 20 μM PPi vs 0-15 μM PPi): significantly higher
mean number of spermatozoa bound to ZP ([4]; increasing concentrations of PPi, 30 min, 5×10^5 spermatozoa/ml): decreased slightly, but not significantly
deubiquitinating activity (ubiquitin-AMC), relative fluorescence [5]: 138.9
chymotrypsin-like proteasomal core activity (Z-LLVY-AMC), fluorescence intensity [6]: 110.8-121.5
chymotrypsin-like PGPH activity (Z-LLE-AMC), relative fluorescence ([7]; Add PPi treatment (10 μM PPi added at time of assay), day 3): 392.1
chymotrypsin-like PGPH activity (Z-LLE-AMC), relative fluorescence ([7]; PPi+BTS (stored with 10 μM PPi), day 10): 388
content of metabolically active spermatozoa with polarized mitochondrial membranes (boar spermatozoa [8]; day 3, JC-1): augmented
percentage of live spermatozoa vs control spermatozoa (boar spermatozoa [8]; storage days 3 and 10, SYBR14/PI): no significant difference
chymotrypsin-like activity (Z-LLL-AMC) ([1]; 10 μM PPi treatments vs no PPi, 1 h measurement): no differences between treatments

prostaglandin F2α [PGF2α]
sperm viability and motility (sperm diluted in BTS): maintained better sperm viability and motility
